Common to all, as to assay: NCI-60 cell line screen, 48 h
Assay [1] concerns SNB-75 CNS.
For assay [2], the system named is OVCAR-5 ovarian.
Assay [3] deals with COLO 205 colon.
Assay [4] has as its system OVCAR-4 ovarian.
The test system of assay [5] is UO-31 renal.
The subject of assay [6] is MDA-MB-435.
Assay [7] relates to K-562 leukemia.
Assay [8] has as its system DU-145 prostate.

“And” between values parts separate entries of the source, which are not always exact repeats. Equal entries are not always repeated.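 96-well plates; 48 h exposure; 5 concentrations. Endpoints by linear interpolation between flanking doses. Not reached: highest tested concentration assigned. The concentration for 50% growth inhibition is given as GI50. TGI denotes the concentration required for complete inhibition of growth.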

On to `COc1ccccc1Oc1nccc(-c2c(-c3ccc(F)cc3)ncn2C2CCNCC2)n1`, for which the GI50 in assay [1] is greater than 16.6 µM; in assay [2], greater than 25 µM; in assay [3], 7.37 µM; in assay [4], greater than 25 µM; in assay [5], 6.86 µM; in assay [6], greater than 24.1 µM. In addition, the values for the GI50 in assay [7] and in assay [8] were 8.32 µM and greater than 25 µM, respectively. In addition, the TGI in assay [1] is greater than 25 µM; in assay [2], greater than 25 µM; in assay [3] it was greater than 19.9 µM; in assay [4] it was greater than 25 µM; in assay [5] it was greater than 25 µM; in assay [6] it was greater than 25 µM. The TGI in assay [7] and in assay [8] was greater than 25 µM in each case.

In the case of `CC(=O)O[C@H]1CC2C(C3CC[C@H](C(C)CCC(=O)O)[C@]31C)[C@H](OC(C)=O)C[C@@H]1CC3(CC[C@]21C)OOC1(CCC(C)CC1)OO3` (stereo not given in full), the TGI in assay [1] is 6.81 µM; in assay [2], 22.7 µM and 16 µM; in assay [3], 8.21 µM and 4.4 µM; in assay [4], 12.2 µM and 5.77 µM; in assay [5] it was 7.91 µM and 3 µM; in assay [6], 18.7 µM and 7.76 µM. Moreover, the TGI is 16.8 µM and 6.21 µM in assay [7]; 18 µM and 13.5 µM in assay [8]. The GI50 in assay [2] is 10.6 µM and 4.54 µM.

`Fc1ccc(NC(c2ccc(F)cc2)C2CCN(CCCCc3ccccc3)CC2)cc1` (stereo not given): the GI50 in assay [1] was 1.11 µM; in assay [2], 1.7 µM; in assay [3], 1.6 µM; in assay [4], 1.41 µM; in assay [5], 1.08 µM; in assay [6], 1.6 µM. Further, the GI50 in assay [7] is 2.07 µM; in assay [8], 1.77 µM. In addition, the TGI in assay [1] was found to be 2.43 µM; in assay [2], 4.04 µM; in assay [3], 3.2 µM; in assay [4], 3.22 µM; in assay [5], 2.43 µM; in assay [6] it was 2.95 µM. In addition, the TGI in assay [7] came to 4.96 µM; in assay [8], 3.86 µM.

For the compound `C(=Nc1nc(SCc2ccccc2)nc2[nH]ncc12)c1cccs1`, the GI50 in assay [1] was greater than 100 µM; in assay [2] it was greater than 100 µM; in assay [3], 22.2 µM; in assay [4], greater than 100 µM; in assay [5] it was 73.8 µM; in assay [6] it was 41.6 µM. Further, the GI50 is 35 µM in assay [7] and 43 µM in assay [8]. The TGI in assay [1] is greater than 100 µM; in assay [2], greater than 100 µM; in assay [3], 76.4 µM; in assay [4], greater than 100 µM; in assay [5], greater than 100 µM; in assay [6], greater than 100 µM. Further, the TGI in assay [7] and in assay [8] was greater than 100 µM each time.

As to `COc1ccc(-c2cc(/C=C/C(=O)c3ccc(N)cc3)[nH]n2)cc1OC`, the GI50 in assay [1] is 2.74 µM; in assay [2], 2.62 µM; in assay [3] it was 1.88 µM; in assay [4], 2.68 µM; in assay [5] it was 3.03 µM; in assay [6], 2.53 µM. Also, the GI50 is 2.03 µM in assay [7] and 3.74 µM in assay [8]. In addition, the TGI is 14.2 µM in assay [1]; 7.94 µM in assay [2]; 3.59 µM in assay [3]; 15.8 µM in assay [4]; 13.1 µM in assay [5]; 7.23 µM in assay [6]. Further, the TGI in assay [7] turned out to be 36.4 µM; in assay [8], 13.5 µM.

Take `CCCCCC(=O)O[C@]1(C(C)=O)CCC2C3CCC4=CC(=O)CC[C@]4(C)C3CC[C@@]21C` (stereo not given in full): the GI50 in assay [1] was 2.15 µM; in assay [2], 5.04 µM; in assay [3] it was 2.13 µM; in assay [4] it was 2.03 µM; in assay [5], 1.93 µM; in assay [6], 3.25 µM. Besides, the GI50 in assay [7] is 3.19 µM; in assay [8], 3.56 µM. Moreover, the TGI in assay [1] turned out to be 12.6 µM; in assay [2], 22.3 µM; in assay [3], 4.04 µM; in assay [4], 11.6 µM; in assay [5] it was 10.3 µM; in assay [6] it was 13.1 µM. The results for the TGI in assay [7] and in assay [8] were 21.9 µM and 13.4 µM, respectively.

On to `CN1CCN(c2c(F)cc(NC3=C(Cl)C(=O)c4ncccc4C3=O)cc2F)CC1`, for which the GI50 was 10.9 µM in assay [1]; 14.8 µM in assay [2]; 2.14 µM in assay [3]; 1.33 µM in assay [4]; 1.52 µM in assay [5]; 1.84 µM in assay [6]. Further, the values for the GI50 in assay [7] and in assay [8] were 0.494 µM and 12.7 µM, respectively. Besides, the TGI was 23.9 µM in assay [1]; 28 µM in assay [2]; 4.82 µM in assay [3]; 2.66 µM in assay [4]; 2.95 µM in assay [5]; 3.62 µM in assay [6]. For the same compound, the TGI in assay [7] is greater than 100 µM; in assay [8], 26.2 µM.

With `CCCCS(=O)c1sc2nc(-c3cccs3)cc(-c3ccccc3)c2c1N` (stereo not given), the GI50 in assay [1] was 10.2 µM; in assay [2], 24.7 µM; in assay [3], 16.9 µM; in assay [4], 13.5 µM; in assay [5], 4.16 µM; in assay [6] it was 17.3 µM. Besides, the GI50 in assay [7] is 5.96 µM; in assay [8], 30.4 µM. Also, the TGI is 98.7 µM in assay [1]; greater than 88.9 µM in assay [2]; 56.6 µM in assay [3]; greater than 100 µM in assay [4]; 49.2 µM in assay [5]; 99.7 µM in assay [6]. The TGI in assay [7] and in assay [8] was greater than 100 µM each time.

With `C=CCN(CC=C)C(=O)c1cc(C)nc2c1c(=O)n(-c1ccccc1)c(=O)n2CCCN1CCN(c2ccccc2OC)CC1`, the GI50 was 31.4 µM in assay [1]; greater than 50 µM in assay [2]; greater than 50 µM in assay [3]; greater than 50 µM in assay [4]; greater than 50 µM in assay [5]; greater than 50 µM in assay [6]. In addition, the GI50 in assay [7] and in assay [8] was greater than 50 µM throughout. Moreover, the TGI in assay [1], in assay [2], in assay [3], in assay [4], in assay [5] and in assay [6] was greater than 50 µM throughout. Moreover, the TGI in assay [7] and in assay [8] was greater than 50 µM in each case.

Consider `CCOC(=O)/C(=C\c1cccc(C)c1)C(C)=O`, for which the TGI in assay [1] amounted to 25.2 µM; in assay [2] it was 31 µM; in assay [3], 41 µM; in assay [4], 59.6 µM; in assay [5], 33.7 µM; in assay [6], 45.4 µM. In addition, the TGI in assay [7] was greater than 100 µM; in assay [8], 38.7 µM.

The values are drawn from PubChem BioAssay (NCI).
